Test results as given in the NIST ThermoML archive (doi:10.1016/j.fluid.2015.07.038).
Numbers after ± are expanded uncertainties.

Conditions: Crystal; DTA

Normal melting temperature: 119.00 ± 0.5 °C
Structure (SMILES): COc1ccc2[nH]c(SCc3ncc(C)c(OC)c3C)nc2c1 [Omeprazole sulfide]
